According to patent US20260158152A1, “SPLICING MODULATOR ANTIBODY-DRUG CONJUGATES AND METHODS OF USE” (EISAI R&D MANAGEMENT CO., LTD., priority 2018, published 2026):
Read-outs that look alike come from different tables or passages of the source.

Legend:
N87 cells = experiment: Cell viability CellTiter-Glo, N87; type: cell-based, human; details: unconjugated payload of the ADC
Procedure: (§1) HCC1954 (American Type Culture Collection (ATCC)) breast ductal carcinoma cells were plated at 2000 cells/well in flat bottom 96-well tissue culture plates (Corning) in a total volume of 90 μL tissue culture medium supplemented with 10% fetal bovine serum (ThermoFisher Scientific). Cells were treated with a 3-fold serial dilution of compound from 200 nM to 0.03 nM. Each concentration was tested in triplicate. At the time of treatment, a plate of untreated cells was evaluated using CellTiter-Glo®2.0 Luminescent Cell Viability Assay according to the manufacturer's recommendations (Promega; #G9241). CellTiter-Glo® 2.0 reagent was added to the medium, incubated, and assayed on an EnVision Multilabel Reader (PerkinElmer). Values represent time zero (TO). […] Percentage growth inhibition was calculated as: [(T144−T0)/(C−T0)]×100 for concentrations for which T144>/=T0 or [(T144−T0)/T0]×100 for concentrations for which T144<T0. The dose response curve plots were generated using Prism 7 (Graphpad) and fit using nonlinear regression analysis and the log (inhibitor) versus response—variable slope (four parameters).
HCC1954 (ATCC), 2000 cells/well), N87 (ATCC, 4000 cells/well), SKBR3 (ATCC, 3000 cells/well), and MCF7 (ATCC, 1500 cells/well) cell lines were used. Cell viability analysis was performed as described in section 2.3.

THP1.1 = experiment: Payload cell potency and lethality CellTiter-Glo, THP1; type: cell-based; details: for GI50: Homo sapiens
Procedure: Each concentration was tested in triplicate. […] Values represent time zero (TO).

NCIH1650.1 = experiment: Payload cellular potency, CTGlo-ATS, 72 h, NCIH1650.1; type: cell-based; details: corresponding free payload, cell line #1, 72 h
Caco-2 cells = experiment: Caco-2 permeability of ADC payload; type: in vitro ADME; details: for Perm. Mean Caco-2 B-A Perm: corresponding free payload
Procedure: (§2) Integrity of cell monolayer was confirmed by TEER (transepithelial electrical resistance) and Lucifer yellow. Payloads were spiked in duplicate at 10 µM, separately, on both sides of the cell monolayer. Permeability rates from the apical to basolateral (A−B) direction and the basolateral to apical (B−A) direction were determined by sampling aliquots from both chambers immediately after treatment (t=0) and following incubation for 2 hours. Samples were protein precipitated with organic solvent containing internal standard and analyzed by LC-MS/MS (SCIEX; API 5500). The area ratio responses of payload/internal standard over time in both directions were used to generate permeability (cm/sec) values.

PC3 cells = experiment: Cell viability, EPHA2-expressing PC3; type: cell-based; details: free payload of the ADC
Procedure: as §1
Anti-CD138 ADCs were tested in the CD138-expressing MOLP8 multiple myeloma cell line. Similarly, anti-EPHA2 ADCs were tested in the EPHA2-expressing PC3 prostate cancer cell line.

[1] = Caco-2 permeability of ADC payload; type: in vitro ADME; details: human, payload; for efflux ratio at 2 h, 10 µM: Caco-2, B−A/A−B
Procedure: as §2

[2] = test system: TAOK1 (neojunction transcript); experiment: In vivo PD RT-qPCR in NCI-N87 tumors, TAOK1; parameters: species or system CB17-SCID mice; details: 10 mg/kg IV single dose, NCI-N87 xenograft, versus vehicle
Procedure: (§3) Single cell suspension of 5 million cells per 0.1 mL (50% ATCC-modification-RPMI-1640-medium, Cat. No. A10491-01 (Thermo-Fisher Scientific); and 50% Corning Matrigel, Cat No. 356254 (VWR Scientific)) was injected subcutaneously on the right lateral flank with a syringe with a 25 Ga needle. Mice were randomized on day 0 at a mean tumor volume of 180-183 mm^3, n=8 per group for efficacy and n=4 per group for pharmacodynamics (PD). On day 1, test articles were administered (10 mg/kg) at a volume of 5 mL/kg intravenously every 7 days for 2 cycles for efficacy; a single course of treatment was used for PD assessment. Animals in the PD cohorts were euthanized at 24, 48, 72, and/or 96 hours post-dosing of a single dose, depending on the test article.
(§4) RNA was purified from tumor samples using MagMAX-96 for Microarrays kit and MagMAX Express-96 Deep Well Magnetic Particle Processor (ThermoFisher Scientific). Tumor samples (size 50-100 mg) were collected in RNAlater buffer and kept at −80° C. until RNA isolation. Tissue homogenization was performed by adding 2-3 ceramic beads and 1 mL of Tri-reagent into a tube containing tumors, followed by disruption on an Omni Bead Ruptor 24 instrument (Omni International). RNA isolation was done according to the manufacturer's instructions.
(§5) RNA lysates were isolated and reverse transcribed using TaqMan Fast Virus 1-Step Master Mixt (ThermoFisher Scientific) according to the manufacturer's instructions.
(§6) Quantitative PCR from cDNA was performed using TaqMan Gene Expression Master Mix (ThermoFisher Scientific) with transcript probes targeting FBXW5 or TAOK1 junctions duplexed with RPLP0 RNA VIC-PL (ThermoFisher Scientific) and quantified using the ΔΔCt method.
(§7) RT-qPCR of FBXW5 (mature mRNA transcript) and TAOK1 (neojunction transcript) were monitored. Test article or vehicle was given intravenously (IV) at 10 mg/kg. […] Tumors were isolated for RNA extraction and RT-qPCR. *p<0.05 versus vehicle using one-way ANOVA (FIG. 24A and FIG. 24B) or two-way ANOVA (FIG. 24C and FIG. 24D).

[3] = test system: FBXW5 (mature mRNA transcript); experiment: In vivo PD RT-qPCR in NCI-N87 tumors, FBXW5; parameters: species or system CB17-SCID mice; details: 10 mg/kg IV single dose, NCI-N87 xenograft, versus vehicle
Procedure: as §3, §4, §5, §6, §7

[4] = THP-1, read-out: Payload cell potency: CT..-ATS GMean GI50 (nM) THP1.1

CC[C@H](O)[C@@H](C)[C@H]1O[C@@H]1C[C@@](C)(O)/C=C/C=C(\C)[C@H]1OC(=O)C[C@H](O)CC[C@@](C)(OC)[C@@H](OC(=O)N2CCN(CCCC(=O)O)CC2)/C=C/[C@@H]1C [D25]
Payload Rmin (%) (N87 cells): 40.364%

CC[C@H](O)[C@@H](C)[C@H]1O[C@@H]1C[C@@](C)(O)/C=C/C=C(\C)[C@H]1OC(=O)C[C@H](O)CC[C@@](C)(OC)[C@@H](OC(=O)N2CCNCC2)/C=C/[C@@H]1C (stereo in doubt) [D1]
CTGlo-ATS Mean MinResponse % THP1.1 (THP1.1; payload of the ADC): −100.815% | CTGlo-ATS GMean LD50 72 h NCIH1650.1 (NCIH1650.1): >10 µM | Perm. Mean Caco-2 B-A Perm (Caco-2 cells): 2.05 10e−6 cm/s | Payload Rmin (PC3 cells): −71.987% | Payload Rmin (%) (N87 cells): −40.041%

C/C(=C\c1cc(F)cc(N2CCN(CC(=O)O)CC2)c1)[C@H]1OC(=O)C[C@H](O)CC[C@H](C)[C@@H](OC(=O)N2CCNCC2)/C=C/[C@@H]1C [D33, 2-(4-(3-fluoro-5-((E)-2-((2S,3S,6R,7S,10R,E)-10-hydroxy-3,7-dimethyl-12-oxo-6-((piperazine-1-carbonyl)oxy)oxacyclododec-4-en-2-yl)prop-1-en-1-yl)phenyl)piperazin-1-yl) acetic acid]
efflux ratio at 2 h, 10 µM [1]: 4.08

CC(=O)N1CCC(n2nnc3c(F)cc(/C=C(\C)[C@H]4OC(=O)C[C@H](O)CC[C@H](C)[C@@H](OC(=O)N5CCN(C)CC5)/C=C/[C@@H]4C)cc32)CC1 [D15]
Papp B→A at 2 h, 10 µM ([1]; Caco-2, basolateral to apical, 2 hours, read-out: Permeability Mean Caco-2 B-A Perm (10e−6 cm/s)): 28.9 ×10⁻⁶ cm/s | efflux ratio at 2 h, 10 µM [1]: 7.84 | Payload Rmin (PC3 cells): −79.835%

CC[C@H](O)[C@@H](C)[C@H]1O[C@@H]1C[C@@](C)(O)/C=C/C=C(\C)[C@H]1OC(=O)C[C@H](O)CC[C@@](C)(OC(C)=O)[C@@H](OC(=O)N2CCN(C(=O)OCc3ccc(NC(=O)[C@H](CCCNC(N)=O)NC(=O)[C@@H](NC(=O)CCCCCN4C(=O)C=CC4=O)C(C)C)cc3)CC2)/C=C/[C@@H]1C [ADL1-D4]
change in TAOK1 neojunction transcript in tumors [2]: significant increases in TAOK1 | change in FBXW5 mature mRNA transcript in tumors [3]: significant depletion of FBXW5

CC[C@H](O)[C@@H](C)[C@H]1O[C@@H]1C[C@H](C)/C=C/C=C(\C)[C@H]1OC(=O)C[C@H](O)CC[C@@](C)(OC)[C@@H](OC(=O)N2CCNCC2)/C=C/[C@@H]1C [D18, (2S,3S,6S,7R,10R,E)-10-hydroxy-2-((S,2E,4E)-7-((2R,3R)-3-((2R,3S)-3-hydroxypentan-2-yl)oxiran-2-yl)-6-methylhepta-2,4-dien-2-yl)-7-methoxy-3,7-dimethyl-12-oxooxacyclododec-4-en-6-yl piperazine-1-carboxylate]
efflux ratio at 2 h, 10 µM [1]: 23 | Payload Rmin (%) (N87 cells): −92.127%

COc1cc2cc(c1Cl)N(C)C(=O)C[C@H](OC(=O)[C@H](C)N(C)C(=O)CCS)[C@]1(C)O[C@H]1[C@H](C)[C@@H]1C[C@@](O)(NC(=O)O1)[C@H](OC)/C=C/C=C(\C)C2 [DM1, reference compound]
Payload cell lethality: CT..-ATS GMean LD50 (nM) THP1.1 (THP1.1; payload of the ADC): 3.287 nM

CC(=O)N1CCC(n2nnc3c(F)cc(/C=C(\C)[C@H]4OC(=O)C[C@H](O)CC[C@H](C)[C@@H](OC(=O)N5CC[N+](C)(Cc6ccc(NC(=O)[C@H](C)NC(=O)[C@@H](NC(=O)CCCCCN7C(=O)C=CC7=O)C(C)C)cc6)CC5)/C=C/[C@@H]4C)cc32)CC1 [ADL5-D15, 4-((((2S,3S,6R,7S,10R,E)-2-((E)-1-(1-(1-acetylpiperidin-4-yl)-4-fluoro-1H-benzo[d][1,2,3]triazol-6-yl)prop-1-en-2-yl)-10-hydroxy-3,7-dimethyl-12-oxooxacyclododec-4-en-6-yl)oxy)carbonyl)-1-(4-((S)-2-((S)-2-(6-(2,5-dioxo-2,5-dihydro-1H-pyrrol-1-yl)hexanamido)-3-methylbutanamido)propanamido)benzyl)-1-methylpiperazin-1-ium]
change in TAOK1 neojunction transcript in tumors [2]: showed an increase in TAOK1, but did not reach statistical significance | change in FBXW5 mature mRNA transcript in tumors [3]: significant depletion of FBXW5

CC[C@H](O)[C@@H](C)[C@H]1O[C@@H]1C[C@@](C)(O)/C=C/C=C(\C)[C@H]1OC(=O)C[C@H](O)CC[C@@](C)(OC)[C@@H](OC(=O)N2CCNC(CCC(=O)O)C2)/C=C/[C@@H]1C (stereo partly drawn) [D22, N-ethyl-N-isopropylpropan-3-(4-((((2S,3S,6S,7R,10R,E)-10-hydroxy-2-((R,2E,4E)-6-hydroxy-7-((2R,3R)-3-((2R,3S)-3-hydroxypentan-2-yl)oxiran-2-yl)-6-methylhepta-2,4-dien-2-yl)-7-methoxy-3,7-dimethyl-12-oxooxacyclododec-4-en-6-yl)oxy)carbonyl)piperazin-2-yl)propanoic acid]
CTGlo-ATS Mean MinResponse % THP1.1 (THP1.1; payload of the ADC): −78.119% | efflux ratio at 2 h, 10 µM [1]: 1.14

CC[C@H](O)[C@@H](C)C1OC1C[C@@](C)(O)/C=C/C=C(\C)[C@H]1OC(=O)C[C@H](O)CC[C@@](C)(OC)[C@@H](OC(=O)N2CCN(CCN3C(=O)C=CC3=O)CC2)/C=C/[C@@H]1C (stereo in doubt) [ADL14-D1, (2S,3S,6S,7R,10R,E)-10-hydroxy-2-((R,2E,4E)-6-hydroxy-7-((2S,3S)-3-((2R,3S)-3-hydroxypentan-2-yl)oxiran-2-yl)-6-methylhepta-2,4-dien-2-yl)-7-methoxy-3,7-dimethyl-12-oxooxacyclododec-4-en-6-yl 4-(2-(2,5-dioxo-2,5-dihydro-1H-pyrrol-1-yl)ethyl)piperazine-1-carboxylate]
change in TAOK1 neojunction transcript in tumors [2]: did not exhibit statistically significant changes | change in FBXW5 mature mRNA transcript in tumors [3]: did not exhibit statistically significant changes

CC[C@H](O)[C@@H](C)[C@H]1O[C@@H]1C[C@@](C)(O)/C=C/C=C(\C)[C@H]1OC(=O)C[C@H](O)CC[C@@](C)(OC)[C@@H](OC(=O)N2CCN(C)CC2)/C=C/[C@@H]1C [D2, (2S,3S,6S,7R,10R,E)-10-hydroxy-2-((R,2E,4E)-6-hydroxy-7-((2R,3R)-3-((2R,3S)-3-hydroxypentan-2-yl)oxiran-2-yl)-6-methylhepta-2,4-dien-2-yl)-7-methoxy-3,7-dimethyl-12-oxooxacyclododec-4-en-6-yl 4-methylpiperazine-1-carboxylate]
GI50 (THP1.1; [4]): 2.02 nM | CTGlo-ATS Mean MinResponse % THP1.1 (THP1.1; payload of the ADC): −100.218% | payload cell potency as compared to D1 (THP1.1; see Table 14): three-fold increase | payload permeability as compared to D1 (Caco-2 cells; see Table 14): three-fold increase | Payload Rmin (PC3 cells): −68.803% | Payload Rmin (%) (N87 cells): −72.706%

C/C(=C\c1cc(F)cc(N2CCOCC2)c1)[C@H]1OC(=O)C[C@H](O)CC[C@H](C)[C@@H](OC(=O)N2CCN(C)CC2)/C=C/[C@@H]1C [D17]
GI50 (THP1.1; THP-1, payload of the ADC, read-out: Payload cell potency: CT..-ATS GMean GI50 (nM) THP1.1): 2.83 nM

CC[C@H](O)[C@@H](C)[C@H]1O[C@@H]1C[C@@](C)(O)/C=C/C=C(\C)[C@H]1OC(=O)C[C@H](O)CC[C@@](C)(O)[C@@H](OC(=O)N2CCNCC2)/C=C/[C@@H]1C [D12]
CTGlo-ATS GMean LD50 72 h NCIH1650.1 (NCIH1650.1): >100 µM | Perm. Mean Caco-2 B-A Perm (Caco-2 cells): 0.23 10e−6 cm/s

CC[C@H](O)[C@@H](C)C1OC1C[C@@](C)(O)/C=C/C=C(\C)[C@H]1OC(=O)C[C@H](O)CC[C@@](C)(OC(C)=O)[C@@H](OC(=O)N2CCNCC2)/C=C/[C@@H]1C (stereo in doubt) [D4, (2S,3S,6S,7R,10R,E)-7-acetoxy-10-hydroxy-2-((R,2E,4E)-6-hydroxy-7-((2S,3S)-3-((2R,3S)-3-hydroxypentan-2-yl)oxiran-2-yl)-6-methylhepta-2,4-dien-2-yl)-3,7-dimethyl-12-oxooxacyclododec-4-en-6-yl piperazine-1-carboxylate]
GI50 (THP1.1; [4]): 10.9 nM | Perm. Mean Caco-2 B-A Perm (Caco-2 cells): 1.79 10e−6 cm/s | Payload Rmin (PC3 cells): −55.97% | Payload Rmin (%) (N87 cells): −81.775%

CC[C@H](O)[C@@H](C)[C@H]1O[C@@H]1C[C@@](C)(O)/C=C/C=C(\C)[C@H]1OC(=O)C[C@H](O)CC[C@@](C)(O)[C@@H](OC(=O)N2CCN(C3CCCCCC3)CC2)/C=C/[C@@H]1C [D11, E7107]
CTGlo-ATS Mean MinResponse % THP1.1 (THP1.1; payload of the ADC): −100.481%

CC[C@H](O)[C@@H](C)[C@H]1O[C@@H]1C[C@@](C)(O)/C=C/C=C(\C)[C@H]1OC(=O)C[C@H](O)CC[C@@](C)(OC)[C@@H](OC(=O)N(C)CCNC)/C=C/[C@@H]1C [D20, (2S,3S,6S,7R,10R,E)-10-hydroxy-2-((R,2E,4E)-6-hydroxy-7-((2R,3R)-3-((2R,3S)-3-hydroxypentan-2-yl)oxiran-2-yl)-6-methylhepta-2,4-dien-2-yl)-7-methoxy-3,7-dimethyl-12-oxooxacyclododec-4-en-6-yl methyl(2-(methylamino)ethyl)carbamate]
efflux ratio at 2 h, 10 µM [1]: 2.38
